From patent US20110312941A1, “1,4-DISUBSTITUTED PIPERIDINES AS VASOPRESSIN RECEPTOR VIA ANTAGONISTS” (VANTIA LIMITED, priority 2009, published 2011)

Molecular target: T1, cloned human V1a receptor (Homo sapiens, UniProt P37288)
T1 construct: host or cells: human brain astrocytoma 1321N1 cells
Assay: in vitro functional calcium mobilisation assay (FLIPR), antagonist activity, 1321N1 cells, 250 pM AVP
Format: cell-based
Conditions: functional pKi derived from pIC50 (Equation 1), FLIPR Ca2+ mobilisation, 1321N1 cells expressing cloned human V1a receptor, read-out: Mean fpKi (Human V1a) (converted)
Experimental: The primary assay which may be used to determine the ability of the compounds of formula (1) to inhibit the vasopressin V1a receptor is an in vitro functional calcium mobilisation assay (FLIPR) that measures antagonist activity at a cloned human V1a receptor. The assay is described below.
The antagonist activity of compounds of formula (1) were determined in a Calcium (Ca2+) mobilisation assay using whole cells (human brain astrocytoma 1321N1 cells, ex Perkin Elmer) genetically modified to stably express a cloned human V1a receptor. Dose response curves were determined by displacement of a single concentration of agonist (250 pM AVP, ex Sigma) with increasing concentrations of compound. A pIC50 value is determined by non-linear regression to a 4-parameter logistic equation and a functional pKi (fpKi) derived using Equation 1.
where A=agonist single conc, and A50=the agonist EC50.

T1 sequence (P37288 whole entry): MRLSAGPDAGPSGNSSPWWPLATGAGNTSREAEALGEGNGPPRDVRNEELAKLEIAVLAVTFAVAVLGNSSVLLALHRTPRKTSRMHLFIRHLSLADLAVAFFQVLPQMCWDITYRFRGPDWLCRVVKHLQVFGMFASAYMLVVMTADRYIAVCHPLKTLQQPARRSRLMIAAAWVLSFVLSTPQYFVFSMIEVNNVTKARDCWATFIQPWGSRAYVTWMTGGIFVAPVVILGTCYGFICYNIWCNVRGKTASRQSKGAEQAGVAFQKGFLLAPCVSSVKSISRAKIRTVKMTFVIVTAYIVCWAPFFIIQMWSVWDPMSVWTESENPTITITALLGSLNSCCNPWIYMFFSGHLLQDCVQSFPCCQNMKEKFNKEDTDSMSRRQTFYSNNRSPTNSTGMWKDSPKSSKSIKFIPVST

Ki [nM]	Structure (SMILES)
6.31	Cc1ccc(N2CCC(C(=O)N3CCc4nc(C)[nH]c4-c4cc(Cl)ccc43)CC2)nc1 [Example 45, (9-Chloro-2-methyl-4,5-dihydro-1H-1,3,6-triaza-benzo[e]azulen-6-yl)-(5′-methyl-3,4,5,6-tetrahydro-2H-[1,2′]bipyridinyl-4-yl)-methanone]
0.912	CCn1ncc2c1Nc1cc(Cl)ccc1N(C(=O)C1CCN(c3ncccc3C)CC1)C2 [Example 120]
1.35	Cc1cccc(N2CCC(C(=O)N3CCc4nc(N5CCOCC5)[nH]c4-c4cc(Cl)ccc43)CC2)n1 [Example 67]
97.7	Cc1ccc2c(c1)-c1[nH]c(N3CCOCC3)nc1CCN2C(=O)C1CCN(c2ccc(C#N)cn2)CC1 [Example 36]
7.59	O=C(C1CCN(c2ccccc2Cl)CC1)N1Cc2cccn2Cc2ccccc21 [Example 157]
0.234	Cc1ccc2c(c1)Cn1cccc1CN2C(=O)C1CCN(c2ccccc2)CC1 [Example 153]
19.1	COc1cccnc1N1CCC(C(=O)N2Cc3cnn(C)c3Nc3cc(Cl)ccc32)CC1 [Example 119]
0.912	CCc1ccc(N2CCC(C(=O)N3Cc4cnn(C)c4Nc4cc(Cl)ccc43)CC2)cc1 [Example 139]
28.2	O=C(C1CCN(c2ccccc2)CC1)N1CCc2nc(C3CCCCC3)[nH]c2-c2cc(Cl)ccc21 [Example 76]
16.6	Cc1ccc2c(c1)-c1[nH]c(N3CCOCC3)nc1CCN2C(=O)C1CCN(c2cccnc2C)CC1 [Example 71]
3.72	Cc1ccnc(N2CCC(C(=O)N3CCc4nc(N5CCOCC5)[nH]c4-c4ccccc43)CC2)c1 [Example 11]
2.4	Cc1ccnc(N2CCC(C(=O)N3Cc4cnn(C)c4Nc4cc(C)ccc43)CC2)c1 [Example 111]
1.48	Cc1ccc2c(c1)-c1[nH]c(N3CCOCC3)nc1CCN2C(=O)C1CCN(c2ccc(C)nc2)CC1 [Example 4, (9-Methyl-2-morpholin-4-yl-4,5-dihydro-1H-1,3,6-triaza-benzo[e]azulen-6-yl)-(6′-methyl-3,4,5,6-tetrahydro-2H-[1,3′]bipyridinyl-4-yl)-methanone]
6.17	CCc1nc2c([nH]1)-c1cc(Cl)ccc1N(C(=O)C1CCN(c3ccccc3)CC1)CC2 [Example 73]
97.7	O=C(C1CCN(c2ccccn2)CC1)N1CCc2nc(-c3cccc(F)c3)[nH]c2-c2cc(Cl)ccc21 [Example 55]
2.95	Cc1ccc(N2CCC(C(=O)N3CCc4nc(N5CCOCC5)[nH]c4-c4cc(F)ccc43)CC2)nc1 [Example 16]
26.3	Cc1nc2c([nH]1)-c1cc(Cl)ccc1N(C(=O)C1CCN(c3ccccc3F)CC1)CC2 [Example 83]
30.9	O=C(C1CCN(c2ccc(C(F)(F)F)cc2)CC1)N1Cc2cccn2Cc2ccccc21 [Example 169]
13.5	CCCc1ccc(N2CCC(C(=O)N3CCc4nc(C)[nH]c4-c4cc(Cl)ccc43)CC2)cc1 [Example 96]
2.88	Cc1ccc(N2CCC(C(=O)N3Cc4cnn(C)c4Nc4cc(Cl)ccc43)CC2)cn1 [Example 142]
2.24	Cc1ccnc(N2CCC(C(=O)N3CCc4nc(C5CCOCC5)[nH]c4-c4cc(C)ccc43)CC2)c1 [Example 38]
2.34	CCc1nc2c([nH]1)-c1cc(C)ccc1N(C(=O)C1CCN(c3cc(C)ccn3)CC1)CC2 [Example 19]
1.1	Cc1ccc(N2CCC(C(=O)N3CCc4nc(N5CCN(C)CC5)[nH]c4-c4cc(Cl)ccc43)CC2)nc1 [Example 52]

Ki [nM]	Structure (SMILES)
69.2	Cc1nc2c([nH]1)-c1cc(Cl)ccc1N(C(=O)C1CCN(c3cccc(Cl)c3)CC1)CC2 [Example 87]
145	Cn1ncc2c1Nc1cc(F)ccc1N(C(=O)C1CCN(c3ncccn3)CC1)C2 [Example 100]
64.6	O=C(C1CCN(c2ccccn2)CC1)N1CCc2nc(-c3ccccc3)[nH]c2-c2cc(Cl)ccc21 [Example 53]
1.91	CCn1ncc2c1Nc1cc(F)ccc1N(C(=O)C1CCN(c3ccc(C)cn3)CC1)C2 [Example 107]
13.8	CCc1cnc(N2CCC(C(=O)N3Cc4cnn(-c5ccccc5)c4Nc4cc(Cl)ccc43)CC2)nc1 [Example 105]
912	Cc1nc2c([nH]1)-c1ccccc1N(C(=O)C1CCN(c3ncccn3)CC1)CC2 [Example 6]
0.617	Cc1ccc(N2CCC(C(=O)N3Cc4cnn(C)c4Nc4cc(Cl)ccc43)CC2)cc1 [Example 136]
12.3	CCCc1nc2c([nH]1)-c1cc(C)ccc1N(C(=O)C1CCN(c3ccccn3)CC1)CC2 [Example 20]
1.48	O=C(C1CCN(c2ccccc2F)CC1)N1Cc2cccn2Cc2ccccc21 [Example 154]
2	Cc1ccnc(N2CCC(C(=O)N3Cc4cnn(C)c4Nc4cc(Cl)ccc43)CC2)c1 [Example 117]
5.37	Cc1ccc(N2CCC(C(=O)N3Cc4cnn(C(C)(C)C)c4Nc4cc(F)ccc43)CC2)nc1 [Example 108]
2	Cc1ccc(N2CCC(C(=O)N3Cc4cnn(-c5ccccc5)c4Nc4cc(Cl)ccc43)CC2)nc1 [Example 123]
1480	O=C(C1CCN(c2ccncc2)CC1)N1Cc2cccn2Cc2ccccc21 [Example 147]
214	N#Cc1ccc(N2CCC(C(=O)N3Cc4cccn4Cc4ccccc43)CC2)cc1 [Example 171]
79.4	O=C(C1CCN(c2ccccn2)CC1)N1CCc2nc(Cc3ccccc3)[nH]c2-c2cc(Cl)ccc21 [Example 56]
13.5	CCc1nc2c([nH]1)-c1cc(Cl)ccc1N(C(=O)C1CCN(c3ccccn3)CC1)CC2 [Example 46]
7.41	CCCc1nc2c([nH]1)-c1cc(C)ccc1N(C(=O)C1CCN(c3cccc(C)n3)CC1)CC2 [Example 62]
14.1	O=C(C1CCN(c2ncccn2)CC1)N1Cc2cnn(-c3ccccc3)c2Nc2cc(Cl)ccc21 [Example 104]
1.2	CCn1ncc2c1Nc1cc(Cl)ccc1N(C(=O)C1CCN(c3cccc(C)n3)CC1)C2 [Example 126]
1.32	Cc1cccc(N2CCC(C(=O)N3Cc4cnn(C)c4Nc4cc(C)ccc43)CC2)c1 [Example 128]
38	Cc1nc2c([nH]1)-c1cc(Cl)ccc1N(C(=O)C1CCN(c3cccc(F)c3)CC1)CC2 [Example 84]
7.59	Cc1ccc(N2CCC(C(=O)N3CCc4nc(N5CCCC5)[nH]c4-c4cc(C)ccc43)CC2)nc1 [Example 43]
22.4	Cc1nc2c([nH]1)-c1cc(Cl)ccc1N(C(=O)C1CCN(c3ccc(C(C)C)cc3)CC1)CC2 [Example 97]

Ki [nM]	Structure (SMILES)
0.794	Cc1ccc(N2CCC(C(=O)N3CCc4nc(N5CCOCC5)[nH]c4-c4cc(Cl)ccc43)CC2)nc1 [Example 59]
7.08	Cc1ccc2c(c1)-c1[nH]c(N3CCOCC3)nc1CCN2C(=O)C1CCN(c2ccc(C(F)(F)F)cn2)CC1 [Example 35]
97.7	NCc1ccc(N2CCC(C(=O)N3Cc4cccn4Cc4ccccc43)CC2)cc1 [Example 178]
1.51	Cc1ccc(N2CCC(C(=O)N3CCc4nc(C5CC5)[nH]c4-c4cc(C)ccc43)CC2)nc1 [Example 25]
18.2	O=C(C1CCN(c2ccccc2)CC1)N1CCc2nc(N3CCCCC3)[nH]c2-c2cc(Cl)ccc21 [Example 77]
1.78	Cc1cccc(N2CCC(C(=O)N3CCc4nc(N5CCOCC5)[nH]c4-c4cc(F)ccc43)CC2)n1 [Example 5, (9-Fluoro-2-morpholin-4-yl-4,5-dihydro-1H-1,3,6-triaza-benzo[e]azulen-6-yl)-(6′-methyl-3,4,5,6-tetrahydro-2H-[1,2′]bipyridinyl-4-yl)-methanone]
4.47	CCCc1nc2c([nH]1)-c1cc(C)ccc1N(C(=O)C1CCN(c3ncccc3C)CC1)CC2 [Example 21]
2.63	COc1ccc(N2CCC(C(=O)N3Cc4cnn(C)c4Nc4cc(Cl)ccc43)CC2)cc1 [Example 138]
10.5	Cc1ccccc1N1CCC(C(=O)N2Cc3cccn3Cc3ccccc32)CC1 [Example 159]
17.4	CN1CCN(c2nc3c([nH]2)-c2cc(Cl)ccc2N(C(=O)C2CCN(c4ccccn4)CC2)CC3)CC1 [Example 51]
30.9	COc1cccc(N2CCC(C(=O)N3CCc4nc(C5CCOCC5)[nH]c4-c4cc(C)ccc43)CC2)n1 [Example 66]
75.9	Cn1ncc2c1Nc1cc(Cl)ccc1N(C(=O)C1CCN(c3ncccn3)CC1)C2 [Example 103, (6-Chloro-3-methyl-4,10-dihydro-3H-2,3,4,9-tetraaza-benzo[f]azulen-9-yl)-(1-pyrimidin-2-yl-piperidin-4-yl)-methanone]
1.95	Cc1ccnc(N2CCC(C(=O)N3CCc4nc(N5CCOCC5)[nH]c4-c4cc(F)ccc43)CC2)c1 [Example 15]
151	Cc1nc2c([nH]1)-c1ccccc1N(C(=O)C1CCN(c3ccccn3)CC1)CC2 [Example 8]
7.41	CCc1nc2c([nH]1)-c1cc(C)ccc1N(C(=O)C1CCN(c3cccc(C)n3)CC1)CC2 [Example 61]
12.9	Cc1ccc2c(c1)Nc1c(cnn1C)CN2C(=O)C1CCN(c2ccccn2)CC1 [Example 109]
2	Cc1ccc2c(c1)Nc1c(cnn1C)CN2C(=O)C1CCN(c2ccccc2F)CC1 [Example 127]
2.69	Cc1cccnc1N1CCC(C(=O)N2Cc3cnn(C)c3Nc3cc(Cl)ccc32)CC1 [Example 116]
8.51	Cn1ncc2c1Nc1cc(Cl)ccc1N(C(=O)C1CCN(c3ccc(C(F)(F)F)cc3)CC1)C2 [Example 140]
31.6	Cc1nc2c([nH]1)-c1cc(Cl)ccc1N(C(=O)C1CCN(c3ccccc3Cl)CC1)CC2 [Example 86]
15.1	CCCc1nc2c([nH]1)-c1cc(Cl)ccc1N(C(=O)C1CCN(c3ccccc3)CC1)CC2 [Example 74]
